The source of these data is patent US10987354B2, “Inhibitors of influenza virus replication and uses thereof” (SUNSHINE LAKE PHARMA CO., LTD., priority 2016, dated 2021).

One data set deals with virus H1N1 A/Weiss/43. Nature of the data set: microbe, parasite or virus in culture. Format: cell-based. The settings on record: Influenza A virus, H1N1, 120 h; MDCK cells, CPE, 5 days, CCK-8; read-out: EC50, inhibitory activity against influenza virus (A/Weiss/43(H1N1)).
The next data set is described as follows: in vivo. The settings on record: SD, rat.

Experimental for in vivo: The compounds disclosed herein were administered in form of a saline solution containing 5% DMSO, 5% Kolliphor HS 15 and 90% Saline. For intravenous administration (iv), the animals were administered with a dose of 1 mg/kg, and blood samples (0.3 mL) were collected at the time points of 0.083, 0.25, 0.5, 1.0, 2.0, 5.0, 7.0 and 24 h after drug administration, then each blood sample was processed to separate plasma by centrifugation at 3000 rpm or 4000 rpm for 10 minutes. For oral administration (po), the animals were administered with a dose of 5 mg/kg, and blood samples (0.3 mL) were collected at the time points of 0.25, 0.5, 1.0, 2.0, 5.0, 7.0 and 24 h after drug administration, then each blood sample was processed to separate plasma by centrifugation at 3000 rpm or 4000 rpm for 10 minutes. Plasma samples were collected and stored at −20° C. or −70° C. until LC/MS/MS analysis.

As to `O=C(O)C1C2CCC(CC2)C1Nc1cc(-c2ccco2)nc(-c2c[nH]c3ncc(Cl)nc23)n1` (racemic) [Example 1, (+/−)-trans-3-((2-(2-chloro-5H-pyrrolo[2,3-b]pyrazin-7-yl)-6-(furan-2-yl)pyrimidin-4-yl)amino)bicyclo[2.2.2]octane-2-carboxylic Acid], in the data set on virus H1N1 A/Weiss/43, the EC50 was 3.89 nM.
On the same count and under the same terms, for `O=C(O)C1C2CCC(CC2)C1Nc1nc(-c2c[nH]c3ncc(Cl)nc23)nc(-c2ccco2)c1F` (racemic) [Example 3, (+/−)-trans-3-((2-(2-chloro-5H-pyrrolo[2,3-b]pyrazin-7-yl)-5-fluoro-6-(furan-2-yl)pyrimidin-4-yl)amino)bicyclo[2.2.2]octane-2-carboxylic Acid] the value was 0.672 nM.
In the case of `O=C(O)C1C2CCC(CC2)C1Nc1nc(-c2c[nH]c3ncc(Cl)nc23)nc(-c2ccccc2)c1F` (racemic) [Example 4, (+/−)-trans-3-((2-(2-chloro-5H-pyrrolo[2,3-b]pyrazin-7-yl)-5-fluoro-6-phenylpyrimidin-4-yl)amino)bicyclo[2.2.2]octane-2-carboxylic Acid], the EC50 in the data set with virus H1N1 A/Weiss/43 turned out to be 0.116 nM.
For `Cn1cc(-c2nc(-c3c[nH]c4ncc(Cl)nc34)nc(NC3C4CCC(CC4)C3C(=O)O)c2F)cn1` (racemic) [Example 5, (+/−)-trans-3-((2-(2-chloro-5H-pyrrolo[2,3-b]pyrazin-7-yl)-5-fluoro-6-(1-methyl-1H-pyrazol-4-yl)pyrimidin-4-yl)amino)bicyclo[2.2.2]octane-2-carboxylic Acid], the EC50 in the data set with virus H1N1 A/Weiss/43 worked out at 3.52 nM.
The same measure, in the same setting: next, `O=C(O)C1C2CCC(CC2)C1Nc1nc(-c2c[nH]c3ncc(Cl)nc23)nc(-c2cc3ccccc3o2)c1F` (racemic) [Example 6, (+/−)-trans-3-((6-(benzofuran-2-yl)-2-(2-chloro-5H-pyrrolo[2,3-b]pyrazin-7-yl)-5-fluoropyrimidin-4-yl)amino)bicyclo[2.2.2]octane-2-carboxylic Acid]: 0.398 nM; `O=C(O)C1C2CCC(CC2)C1Nc1cc(-c2ccccc2)nc(-c2c[nH]c3ncc(Cl)nc23)n1` (racemic) [Example 12, (+/−)-trans-3-((2-(2-chloro-5H-pyrrolo[2,3-b]pyrazin-7-yl)-6-phenylpyrimidin-4-yl)amino)bicyclo[2.2.2]octane-2-carboxylic Acid]: 2.54 nM.
As for `O=C(O)[C@H]1C2CCC(CC2)[C@@H]1Nc1nc(-c2c[nH]c3ncc(Cl)nc23)ncc1F` [Compound A, reference compound], the EC50 in the data set on virus H1N1 A/Weiss/43 came to 33.2 nM. Besides, in the data set “in vivo” (iv, 1 mg/kg), the AUC(0-inf) (as a rule, the area under the concentration-time curve extrapolated to infinity) amounted to 894 ng·h/mL; the AUC(0-t) (usually exposure summed from dosing to a finite time, without extrapolation to infinity) came out at 894 ng·h/mL; the clearance (in general, the rate of elimination divided by the concentration) is 312 mL/min/kg. In “in vivo” (po, 5 mg/kg), this compound came in with a total exposure AUC(0-inf) of 2910 ng·h/mL and an AUC(0-t) of 2880 ng·h/mL.
In the data set “in vivo” (iv, 1 mg/kg), `O=C(O)[C@H]1C2CCC(CC2)[C@@H]1Nc1nc(-c2c[nH]c3ncc(Cl)nc23)nc(-c2cc3ccccc3s2)c1F` [Example 7a, (2S,3S)-3-((6-(benzo[b]thiophen-2-yl)-2-(2-chloro-5H-pyrrolo[2,3-b]pyrazin-7-yl)-5-fluoropyrimidin-4-yl)amino)bicyclo[2.2.2]octane-2-carboxylic Acid] gave an AUC(0-inf) of 3260 ng·h/mL, an AUC(0-t) of 3220 ng·h/mL and a clearance of 85.2 mL/min/kg. In “in vivo” (po, 5 mg/kg), the AUC(0-inf) came to 9950 ng·h/mL and the AUC(0-t) turned out to be 9840 ng·h/mL.
For `CC(C)(C)[C@@H](CC(=O)O)Nc1nc(-c2c[nH]c3ncc(Cl)nc23)nc(-c2ccco2)c1F` [Example 8, (R)-3-((2-(2-chloro-5H-pyrrolo[2,3-b]pyrazin-7-yl)-5-fluoro-6-(furan-2-yl)pyrimidin-4-yl)amino)-4,4-dimethylpentanoic Acid], in the data set with virus H1N1 A/Weiss/43, the EC50 was found to be 0.394 nM. Further, in the data set “in vivo” (iv, 1 mg/kg), the AUC(0-inf) was found to be 1550 ng·h/mL, the AUC(0-t) was 1540 ng·h/mL and the clearance was 187 mL/min/kg. Further, in the data set “in vivo” (po, 5 mg/kg), the AUC(0-inf) came out at 5440 ng·h/mL and the area under the curve AUC(0-t) stood at 5420 ng·h/mL.
Turning to `O=C(O)[C@H]1C2CCC(CC2)[C@@H]1Nc1nc(-c2c[nH]c3ncc(Cl)nc23)nc(-c2cccs2)c1F` [Example 13, (2S,3S)-3-((2-(2-chloro-5H-pyrrolo[2,3-b]pyrazin-7-yl)-5-fluoro-6-(thiophen-2-yl)pyrimidin-4-yl)amino)bicyclo[2.2.2]octane-2-carboxylic Acid], in the data set on virus H1N1 A/Weiss/43, the EC50 came out at 0.017 nM. In the data set “in vivo” (iv, 1 mg/kg), this compound showed an AUC(0-inf) of 10100 ng·h/mL, an AUC(0-t) of 9900 ng·h/mL and a clearance of 27.8 mL/min/kg. In “in vivo” (po, 5 mg/kg), this compound had an AUC(0-inf) of 29000 ng·h/mL and an AUC(0-t) of 27400 ng·h/mL.
`O=C(O)[C@H]1C2CCC(CC2)[C@@H]1Nc1cc(-c2cc3ccccc3s2)nc(-c2c[nH]c3ncc(Cl)nc23)n1` [Example 15, (2S,3S)-3-((6-(benzo[b]thiophen-2-yl)-2-(2-chloro-5H-pyrrolo[2,3-b]pyrazin-7-yl)pyrimidin-4-yl)amino)bicyclo[2.2.2]octane-2-carboxylic Acid]: the EC50 in the data set with virus H1N1 A/Weiss/43 was 0.76 nM.
As for `O=C(O)[C@H]1C2CCC(CC2)[C@@H]1Nc1nc(-c2c[nH]c3ncc(Cl)nc23)nc(-c2ccc(C3CC3)s2)c1F` [Example 27, (2S,3S)-3-((2-(2-chloro-5H-pyrrolo[2,3-b]pyrazin-7-yl)-6-(5-cyclopropylthiophen-2-yl)-5-fluoropyrimidin-4-yl)amino)bicyclo[2.2.2]octane-2-carboxylic Acid], the EC50 in the data set on virus H1N1 A/Weiss/43 came to 0.024 nM. In addition, in “in vivo” (iv, 1 mg/kg), the AUC(0-inf) is 1960 ng·h/mL, the AUC(0-t) stood at 1960 ng·h/mL and the clearance is 144 mL/min/kg. In addition, in the data set “in vivo” (po, 5 mg/kg), the AUC(0-inf) was 7250 ng·h/mL and the AUC(0-t) was determined as 7170 ng·h/mL.
Take `O=C(O)[C@H]1C2CCC(CC2)[C@@H]1Nc1nc(-c2c[nH]c3ncc(Cl)nc23)nc(-c2ccc(Cl)s2)c1F` [Example 29, (2S,3S)-3-((2-(2-chloro-5H-pyrrolo[2,3-b]pyrazin-7-yl)-6-(5-chlorothiophen-2-yl)-5-fluoropyrimidin-4-yl)amino)bicyclo[2.2.2]octane-2-carboxylic Acid]: the EC50 in the data set on virus H1N1 A/Weiss/43 came to 0.013 nM. In “in vivo” (iv, 1 mg/kg), this compound showed an area under the curve AUC(0-inf) of 4980 ng·h/mL, an AUC(0-t) of 4830 ng·h/mL and a clearance of 56.3 mL/min/kg. In the data set “in vivo” (po, 5 mg/kg), this compound had an AUC(0-inf) of 23800 ng·h/mL and an AUC(0-t) of 23700 ng·h/mL.
As to `Cc1ccc(-c2nc(-c3c[nH]c4ncc(Cl)nc34)nc(N[C@H]3C4CCC(CC4)[C@@H]3C(=O)O)c2F)s1` [Example 33, (2S,3S)-3-((2-(2-chloro-5H-pyrrolo[2,3-b]pyrazin-7-yl)-5-fluoro-6-(5-methylthiophen-2-yl)pyrimidin-4-yl)amino)bicyclo[2.2.2]octane-2-carboxylic Acid], in the data set with virus H1N1 A/Weiss/43, the EC50 amounted to 0.01 nM.
Same read-out and setting: for `O=C(O)[C@H]1C2CCC(CC2)[C@@H]1Nc1cc(N2CCN(c3ccccc3)CC2)nc(-c2c[nH]c3ncc(Cl)nc23)n1` [Example 39, (2S,3S)-3-((2-(2-chloro-5H-pyrrolo[2,3-b]pyrazin-7-yl)-6-(4-phenylpiperazin-1-yl)pyrimidin-4-yl)amino)bicyclo[2.2.2]octane-2-carboxylic Acid] the value was 1.22 nM.
For the compound `O=C(O)[C@H]1C2CCC(CC2)[C@@H]1Nc1nc(-c2c[nH]c3ncc(Cl)nc23)nc(-c2nccs2)c1F` [Example 49, (2S,3S)-3-((2-(2-chloro-5H-pyrrolo[2,3-b]pyrazin-7-yl)-5-fluoro-6-(thiazol-2-yl)pyrimidin-4-yl)amino)bicyclo[2.2.2]octane-2-carboxylic Acid], in the data set with virus H1N1 A/Weiss/43, the EC50 came to 0.521 nM. In “in vivo” (iv, 1 mg/kg), the AUC(0-inf) came to 3950 ng·h/mL, the AUC(0-t) came out at 3940 ng·h/mL and the clearance was 71.5 mL/min/kg. In “in vivo” (po, 5 mg/kg), the AUC(0-inf) came out at 3550 ng·h/mL and the AUC(0-t) turned out to be 3500 ng·h/mL.
In “in vivo” (iv, 1 mg/kg), `O=C(O)[C@H]1C2CCC(CC2)[C@@H]1Nc1nc(-c2c[nH]c3nc(Cl)cnc23)nc(-c2cccs2)c1F` [Example 53, (2S,3S)-3-((2-(3-chloro-5H-pyrrolo[2,3-b]pyrazin-7-yl)-5-fluoro-6-(thiophen-2-yl)pyrimidin-4-yl)amino)bicyclo[2.2.2]octane-2-carboxylic Acid] gave an AUC(0-inf) of 3740 ng·h/mL, an AUC(0-t) of 3670 ng·h/mL and a clearance of 74.2 mL/min/kg. In “in vivo” (po, 5 mg/kg), the AUC(0-inf) is 18000 ng·h/mL and the AUC(0-t) was found to be 17700 ng·h/mL.
For the compound `O=C(O)[C@H]1C2CCC(CC2)[C@@H]1Nc1cc(-n2cccc2)nc(-c2c[nH]c3ncc(Cl)nc23)n1` [Example 55, (2S,3S)-3-((2-(2-chloro-5H-pyrrolo[2,3-b]pyrazin-7-yl)-6-(1H-pyrrol-1-yl)pyrimidin-4-yl)amino)bicyclo[2.2.2]octane-2-carboxylic Acid], the EC50 with virus H1N1 A/Weiss/43 came to 0.68 nM.
The same measure, in the same setting: for `N#Cc1ccc(-c2nc(-c3c[nH]c4ncc(Cl)nc34)nc(N[C@H]3C4CCC(CC4)[C@@H]3C(=O)O)c2F)s1` [Example 63, (2S,3S)-3-((2-(2-chloro-5H-pyrrolo[2,3-b]pyrazin-7-yl)-6-(5-cyanothiophen-2-yl)-5-fluoropyrimidin-4-yl)amino)bicyclo[2.2.2]octane-2-carboxylic acid] the value was 0.079 nM.
For `O=C(O)[C@H]1C2CCC(CC2)[C@@H]1Nc1nc(-c2c[nH]c3nccnc23)nc(-c2cccs2)c1F` [Example 64, (2S,3S)-3-((5-fluoro-2-(5H-pyrrolo[2,3-b]pyrazin-7-yl)-6-(thiophen-2-yl)pyrimidin-4-yl)amino)bicyclo[2.2.2]octane-2-carboxylic Acid], the EC50 in the data set on virus H1N1 A/Weiss/43 amounted to 0.887 nM.
In “in vivo” (iv, 1 mg/kg), `O=C(O)[C@H]1C2CCC(CC2)[C@@H]1Nc1nc(-c2c[nH]c3ncc(Cl)nc23)nc2c1ccn2C(CF)CF` [Example 65, (2S,3S)-3-((2-(2-chloro-5H-pyrrolo[2,3-b]pyrazin-7-yl)-7-(1,3-difluoropropan-2-yl)-7H-pyrrolo[2,3-d]pyrimidin-4-yl)amino)bicyclo[2.2.2]octane-2-carboxylic Acid] showed an AUC(0-inf) of 2390 ng·h/mL, an AUC(0-t) of 2370 ng·h/mL and a clearance of 121 mL/min/kg. Moreover, in “in vivo” (po, 5 mg/kg), the AUC(0-inf) is 6170 ng·h/mL and the AUC(0-t) came to 6150 ng·h/mL.
